Earlier results as cited in patent US20050003341A1, “Drug discovery assays based on the biology of atherosclerosis, cancer, and alopecia” (priority 2003, published 2005).
Read-outs that look alike come from different tables or passages of the source.

How the values were obtained:
TF = settings: for Cu^+2 induced procoagulant activity: probucol 20, vitamin E 50, BHT 50, U74389G 20 μmol/L
isolated hair follicles = settings: for scalp hair growth: Philpott 1996
[1] = test system: cell attachment to fibronectin; settings: for cell attachment to coated plates: six ocular melanoma cell lines (Mac Neil 1994A)
apo(a) transgenic mice = settings: 15 μg, 12 weeks
[2] = a variety of cells, cited studies
[3] = Peterziel 1999, dependent on presence of AR

Molecule: [Cu+2] [Cu^+2]
- procoagulant activity (TF; 10 hours, up to 20 μmol/L, without 8-hydroxyquinoline): no effect
- TF mRNA levels (TF; at 2 hours, relative to basal): 50%
- increase in TF mRNA (TF; at 6 hours): 3.5 fold

Molecule: TNFα
- ERK phosphorylation (ERK; [2]): increase
- scalp hair growth (isolated hair follicles): inhibition

Molecule: CC(C)(O)C(=O)Nc1ccc([N+](=O)[O-])c(C(F)(F)F)c1 [hydroxyflutamide]
- Elk-1 transcription activity (ERK; [3]): *The study also showed an increase in Elk-1 transcription activity following treatment with the androgen DHT, or the antiandrogens casodex and hydroxyflutamide. ERK phosphorylation activates Elk-1, which is a member of the ETS family.

Molecule: C[C@]12C=CC(=O)C=C1CC[C@@H]1C2=CC[C@]2(C)[C@@H](C(=O)CN3CCN(c4cc(N5CCCC5)nc(N5CCCC5)n4)CC3)CC[C@@H]12.O=C(O)/C=C\C(=O)O [U74389G]
- Cu^+2 induced procoagulant activity (TF): inhibited

Molecule: C[C@H](CCC(=O)O)C[C@H](C)C[C@H](C)C(=O)/C=C(\O)[C@H](C)C[C@H](C)C/C=C/[C@@H](C)[C@@H](O)[C@@H](C)[C@@H](O)C[C@@H]1CC[C@@](C)([C@H]2CC[C@@](C)([C@@H](C)O)O2)O1 [ionomycin]
- cell attachment to coated plates [1]: Significant inhibition

Molecule: CC(C)(Sc1cc(C(C)(C)C)c(O)c(C(C)(C)C)c1)Sc1cc(C(C)(C)C)c(O)c(C(C)(C)C)c1 [probucol]
- Cu^+2 induced procoagulant activity (TF): inhibited

Molecule: Cc1cc(C(C)(C)C)c(O)c(C(C)(C)C)c1 [BHT]
- Cu^+2 induced procoagulant activity (TF): inhibited

Molecule: CCCCCCCCCCCCCC(=O)O[C@@H]1[C@@H](C)[C@@]2(O)[C@@H](C=C(CO)C[C@]3(O)C(=O)C(C)=C[C@@H]23)[C@@H]2C(C)(C)[C@]12OC(C)=O [TPA, phorbol 12-myristate 13-acetate]
- ERK phosphorylation (ERK; [2]): increase

Molecule: CNc1ccc2oc(C[C@H]3O[C@@]4(CC[C@H]3C)O[C@H]([C@H](C)C(=O)c3ccc[nH]3)[C@H](C)C[C@H]4C)nc2c1C(=O)O [A 23187]
- ERK phosphorylation (ERK; [2]): increase

Molecule: CC/C(=C(\c1ccccc1)c1ccc(OCCN(C)C)cc1)c1ccccc1 [tamoxifen]
- cell attachment to ECM, fibronectin, collagen type I or IV ([1]; ZR75-1 breast cancer cells (Millon 1989)): decreased attachment
- cell attachment to fibronectin ([1]; retinal pigment epithelial (RPE) cells (Wagner 1995)): decreased attachment
- cell attachment to coated plates [1]: significant inhibition
- decrease in area of focal apo(a) accumulation (apo(a) transgenic mice): 97%
- decrease in average level of apo(a) in the vessel wall (apo(a) transgenic mice): 69%
- decrease in lesion area (apo(a) transgenic mice): 92%
- decrease in number of lipid lesions (apo(a) transgenic mice): 80%

Molecule: CC[C@H]1CN2CCc3cc(OC)c(OC)cc3[C@@H]2C[C@@H]1C[C@H]1NCCc2cc(OC)c(OC)cc21 [emetine]
- c-mos expression and ERK phosphorylation (ERK; starfish eggs): inhibition

Molecule: IL-1β: interleukin 1β
- hair growth (isolated hair follicles; Hoffmann 1997, 6 days, A 23187 2 μM, TPA 1 μM, IL-1β 100 ng per ml): significantly inhibited hair growth
- scalp hair growth (isolated hair follicles): inhibition

Molecule: C[C@]12CCC(=O)C[C@@H]1CC[C@@H]1[C@@H]2CC[C@]2(C)[C@@H](O)CC[C@@H]12 [DHT, Dihydrotestosterone]
- ERK phosphorylation (ERK): **The study reports no increase in ERK phosphorylation in LNCaP or PC-3 cells following treatment with DHT.
- Elk-1 transcription activity (ERK): *The study also showed an increase in Elk-1 transcription activity following treatment with the androgen DHT, or the antiandrogens casodex and hydroxyflutamide. ERK phosphorylation activates Elk-1, which is a member of the ETS family.

Molecule: CC(O)(CS(=O)(=O)c1ccc(F)cc1)C(=O)Nc1ccc(C#N)c(C(F)(F)F)c1 (centres unmarked) [casodex]
- Elk-1 transcription activity (ERK; [3]): *The study also showed an increase in Elk-1 transcription activity following treatment with the androgen DHT, or the antiandrogens casodex and hydroxyflutamide. ERK phosphorylation activates Elk-1, which is a member of the ETS family.

Molecule: estrogen
- ERK phosphorylation (ERK; [2]): increase

Molecule: vitamin E
- LPS induced TF expression (TF): inhibited
- Cu^+2 induced procoagulant activity (TF): inhibited

Molecule: apo(a): apolipoprotein(a)
- plasminogen binding to fibronectin (fibronectin): completely abolished

Molecule: NCCCCCC(=O)O [ε-ACA]
- Lp(a) binding to fibronectin (fibronectin): not effective
- plasminogen binding to fibronectin (fibronectin): inhibited

B1: IL-1a: interleukin 1α (protein, UniProt P01583 113-271, looked up)
Interleukin-1 alpha: SAPFSFLSNVKYNFMRIIKYEFILNDALNQSIIRANDQYLTAAALHNLDEAVKFDMGAYKSSKDDAKITVILRISKTQLYVTAQDEDQPVLLKEMPEIPKTITGSETNLLFFWETHGTKNYFTSVAHPNLFIATKQDYWVCLAGGPPSITDFQILENQA
- scalp hair growth (isolated hair follicles): inhibition
